{"source": "patent US20130280391A1", "about": "“ANTI-MICROBIAL WASH COMPOSITIONS INCLUDING CERAGENIN COMPOUNDS AND METHODS OF USE FOR TREATING NON-MEAT FOOD PRODUCTS” (BRIGHAM YOUNG UNIVERSITY, priority 2012, published 2013)", "key": {"Salmonella bacteria": {"tested_on": "Salmonella bacteria", "test": "Example 2: killing of Salmonella inoculated on food product samples by dip in wash composition", "type": "cell-based", "conditions": "30 second dip; for level of Salmonella bacteria in the rinsate: positive control nearly 10^3.5 CFUs/mL", "method": "(§1) Example 2 was performed to determine the effectiveness of an anti-microbial wash composition including a ceragenin compound in controlling growth of Salmonella bacteria by fighting off a Salmonella inoculation. Example 3 was similarly performed to determine the effectiveness of the wash composition in controlling growth of Campylobacter bacteria by fighting off a Campylobacter inoculation. Examples 2 and 3 simulate the effectiveness of the present anti-microbial wash compositions to kill Salmonella and Campylobacter on a food product where the food product has become contaminated with Salmonella bacteria or Campylobacter bacteria.\n(§2) A total of 15 food product samples were used for these tests. The 15 samples were divided into five groups of three each. Three samples were left untreated to serve as a negative control in order to observe natural levels of bacteria present on the samples. The remaining 12 samples were then inoculated with 1 mL of Salmonella and 1 mL of Campylobacter. The samples were allowed to dry for 20 minutes in order for the bacteria to adhere to the surface of the food product samples. One group of three of the inoculated samples, designated the positive control, were then rinsed with a wash composition including no anti-microbial agent to determine the level of bacteria after inoculation.\n(§3) Each sample was withdrawn after 30 seconds. […] Each sample was withdrawn after 30 seconds. The fifth group of three inoculated samples was dipped one by one into a comparative proprietary non-CSA wash composition. Each of the samples was then rinsed, and the rinsate was collected to determine the levels and types of bacteria from each group. […] In other words, there were no changes to color, texture, taste, or smell, as a result of application of the ceragenin wash compositions.\nIn other words, the wash composition including 500 ppm ceragenin compound killed 100% of Salmonella bacteria present."}, "Campylobacter bacteria": {"tested_on": "Campylobacter bacteria", "test": "Example 3: killing of Campylobacter inoculated on food product samples by dip in wash composition", "type": "cell-based", "conditions": "30 second dip; for log reduction of Campylobacter: versus positive control", "method": "as §1, §2, §3\nIn other words, the treatment was effective in killing 93.7% of the Campylobacter bacteria. […] In other words, the treatment was effective in killing 80% of the Campylobacter bacteria."}, "[1]": {"conditions": "1000 ppm by weight aqueous wash"}}, "data": [{"compound": "CCCCCCCCOC(=O)CC[C@@H](C)[C@H]1CC[C@H]2[C@@H]3[C@H](OC(=O)CCN)C[C@@H]4C[C@H](OC(=O)CCN)CC[C@]4(C)[C@H]3C[C@H](OC(=O)CCN)[C@]12C", "note": "[CSA-44]", "values": [{"measurement": "Salmonella bacteria killed", "setting": "Salmonella bacteria; 500 ppm by weight aqueous wash", "result": 100, "unit": "%"}, {"measurement": "level of Salmonella bacteria in the rinsate", "setting": "Salmonella bacteria; 500 ppm by weight aqueous wash", "result": "no detectable level of Salmonella bacteria"}, {"measurement": "level of Salmonella bacteria in the rinsate", "setting": "Salmonella bacteria; [1]", "result": "no detectable level of Salmonella bacteria"}, {"measurement": "Campylobacter bacteria killed", "setting": "Campylobacter bacteria; 500 ppm by weight aqueous wash", "result": 93.7, "unit": "%"}, {"measurement": "log reduction of Campylobacter", "setting": "Campylobacter bacteria; 500 ppm by weight aqueous wash", "result": 1.2, "unit": "log"}, {"measurement": "Campylobacter bacteria killed", "setting": "Campylobacter bacteria; [1]", "result": 80, "unit": "%"}, {"measurement": "log reduction of Campylobacter", "setting": "Campylobacter bacteria; [1]", "result": 0.8, "unit": "log"}]}]}
